From a compilation of properties of binary mixtures (doi:10.1016/j.molliq.2021.116359)

Assay: xn = mol fraction of the nth substance listed
Conditions: 101.3 kPa, x1 = 0.2

CCCC[N+](CCCC)(CCCC)CCCC.O=S(=O)([O-])O + CCCCCCCCCO
Conditions | electrical conductivity [S/m] | speed of sound [m/s] | viscosity [mPa·s]
298.15 K | 0.0037 | 1411.5 | 137.2
303.15 K | 0.005 | 1395 | 107.9
318.15 K | 0.0102 | 1346.7 | 51.9
323.15 K | 0.0123 | 1331.1 | 41.9
328.15 K | 0.0146 | 1315.7 | 33.79
333.15 K | 0.018 | 1300.3 | 27.74
